Results as given in patent USRE30633E, “3-Lower alkylcarbamylsulfonamido-4-phenylaminopyridines, n-oxides, derivatives thereof and pharmaceutical compositions containing same” (A. Christiaens Societe Anonyme, priority 1974, dated 1981).

Columns and labels:
paw of rats = experiment: Pharmacological test for anti-inflammatory properties (carrageenan rat paw swelling); type: in vivo; conditions: oral 1 hour before carrageenan (0.05 ml of 1%), swelling 4 hours after injection by plethysmography, dose not given
Procedure: 1. Pharmacological test for anti-inflammatory properties.
The compounds to be tested are given as freshly prepared solutions or suspensions by oral route 1 hour before injecting the paw of rats with carrageenan which is a known inflammatory agent.
The inflammatory agent (carrageenan) either in solution or suspension is then injected into the plantar tissue of the right hind paw of each rat, the left paw remaining untreated and serving as control. Each animal receives, for example, 0.05 ml of an aqueous solution containing 1% by weight of carrageenan and 0.9% of sodium chloride.
4 hours after the injection of the inflammatory agent, the importance of swelling is determined by plethysmography and is expressed as a percent of the volume of the control paw.
The anti-inflammatory effect expressed as a percentage of inhibition is obtained by comparison between rats treated with the anti-inflammatory compound and a control group of rats.

rats = experiment: Pharmacological test for diuretic properties (urine volume); type: in vivo; conditions: 50 mg/kg gastric gavage, 25 ml/kg saline s.c., urine collected 4 hours, ml/kg of body weight
Procedure: 2. Pharmacological tests for diuretic properties Lots of 3 rats weighting 250-300 g have been constituted at random, each of them being submitted to the same treatment. The compound to be tested was administered by .[.gastric gavage at a dose of 50 ml/kg as a solution or a.]. .Iadd.gastric gavage at a dose of 50 mg/kg as a solution or a .[…].suspension in water containing 0.45% of methylcellulose (which is an inert mucilaginous substance). Control animals received only distilled water as a placebo. At the same time, all the animals received 25 ml/kg of physiological saline by subcutaneous injection. The rats were then placed in metabolic cages, each cage containing 3 animals receiving the same treatment. The urines have been collected during 4 hours. […] The diuresis is expressed in ml/kg of body weight.

Question: What does the source list for `CCNC(=O)NS(=O)(=O)c1cnccc1Nc1ccc(Cl)c(C(F)(F)F)c1` [JDL 488, 3-ethylcarbamylsulfonamido-4-(3'-trifluoromethyl-4'-chloro)-phenyl-aminopyridine]?
Answer: % inhibition of acute oedema (paw of rats): 24.8%; Diuresis (rats): 16.4 mL/kg

Question: Which “% inhibition of acute oedema” value (paw of rats) does the source give for `CCCNC(=O)NS(=O)(=O)c1cnccc1Nc1ccc(Cl)cc1` [JDL 417, 3-propylcarbamylsulfonamido-4-(4'-chloro)-phenylaminopyridine] here?
Answer: The value was 72.8%.

Question: And the Diuresis (rats)?
Answer: Its Diuresis is 58.3 mL/kg.

Question: Which “% inhibition of acute oedema” value (paw of rats) does the source give for `CNC(=O)NS(=O)(=O)c1cncc(C)c1Nc1cccc(Cl)c1` [JDL 501, 3-methylcarbamylsulfonamido-4-(3'-chloro)-phenylamino-5-methylpyridine] here?
Answer: The value was 39.2%.

Question: And the Diuresis (rats)?
Answer: The Diuresis was 35.9 mL/kg.

Question: `CCNC(=O)NS(=O)(=O)c1cnccc1NCc1ccco1` [JDL 471, 3-ethylcarbamylsulfonamido-4-methylfurylaminopyridine] was tested. Which “% inhibition of acute oedema” value (paw of rats) did it give?
Answer: The value was 70.4%.

Question: And the Diuresis (rats)?
Answer: The Diuresis was 37.7 mL/kg.

Question: Which results are given for `CCNC(=O)NS(=O)(=O)c1cnccc1Nc1cccc(C(F)(F)F)c1` [JDL 386, 3-ethylcarbamylsulfonamido-4-(3'-trifluoromethyl)-phenylaminopyridline]?
Answer: % inhibition of acute oedema (paw of rats): 80.8%; Diuresis (rats): 80.5 mL/kg

Question: What does the source list for `CCNC(=O)NS(=O)(=O)c1cnccc1Nc1cccc(Cl)c1` [JDL 387]?
Answer: % inhibition of acute oedema (paw of rats): 76.8%; Diuresis (rats): 80.9 mL/kg

Question: What does the source list for `CCNC(=O)NS(=O)(=O)c1cnccc1Nc1cccc(CC)c1` [JDL 511, 3-ethylcarbamylsulfonamido-4-(3'-ethyl)-phenylaminopyridine]?
Answer: % inhibition of acute oedema (paw of rats): 72.0%; Diuresis (rats): 66.4 mL/kg

Question: How did the “% inhibition of acute oedema” value (paw of rats) turn out when `CC(C)NC(=O)NS(=O)(=O)c1cnccc1Nc1ccc(Cl)cc1` [JDL 423, 3-isopropylcarbamylsulfonamido-4-(4'-chloro)-phenylaminopyridine] was run?
Answer: Its value is 64.0%.

Question: And the Diuresis (rats)?
Answer: The Diuresis was 68.7 mL/kg.

Question: With `O=C(Nc1ccc(Cl)cc1)NS(=O)(=O)c1cnccc1Nc1cccc(C(F)(F)F)c1` [JDL 357, 3-parachlorophenylcarbamylsulfonamido-4-(3'-trifluoromethyl)-phenylaminopyridine] as the compound, how does the “% inhibition of acute oedema” value (paw of rats) read?
Answer: The value was 52.0%.

Question: And the Diuresis (rats)?
Answer: The Diuresis was 11.2 mL/kg.

Question: What does the source list for `CC(C)(C)NC(=O)NS(=O)(=O)c1cnccc1Nc1cccc(Cl)c1` [JDL 388, 3-tertiobutylcarbamylsulfonamido-4-(3'-chloro)-phenylaminopyridine]?
Answer: % inhibition of acute oedema (paw of rats): 66.4%; Diuresis (rats): 37.0 mL/kg

Question: Which results are given for `C=CCNC(=S)NS(=O)(=O)c1cnccc1Nc1cccc(Cl)c1` [JDL 480, 3-allyl-thiocarbamyl-sulfonamido-4-(3'-chloro)-phenylaminopyridine]?
Answer: % inhibition of acute oedema (paw of rats): 65.6%; Diuresis (rats): 26.4 mL/kg

Question: `CCNC(=O)NS(=O)(=O)c1cnccc1Nc1cccc(F)c1` [JDL 465, 3-ethylcarbamylsulfonamido-4-(3'-fluoro)-phenylaminopyridine] was tested. Which “% inhibition of acute oedema” value (paw of rats) did it give?
Answer: Its value is 71.2%.

Question: What about the Diuresis (rats) of the same compound?
Answer: The Diuresis was 76.7 mL/kg.

Question: `NS(=O)(=O)c1cnccc1Oc1cccc(Cl)c1` [JDL 360, 3-sulfonamido-4-(3'-chloro)-phenoxypyridine] was tested. Which “% inhibition of acute oedema” value (paw of rats) did it give?
Answer: Its value is 33.6%.

Question: And the Diuresis (rats)?
Answer: Its Diuresis is 5.2 mL/kg.

Question: Which “% inhibition of acute oedema” value (paw of rats) does the source give for `CCC(=O)NS(=O)(=O)c1cnccc1N(C)c1ccccc1` [JDL 358, 3-propionylsulfonamido-4-(N-methylanilino)-pyridine] here?
Answer: The value was 57.3%.

Question: And the Diuresis (rats)?
Answer: The Diuresis was 17.9 mL/kg.

Question: With `O=C(NC1CCCCC1)NS(=O)(=O)c1cnccc1Nc1ccc(Cl)cc1` [JDL 426, 3-cyclohexylcarbamylsulfonamido-4-(4'-chloro)-phenylaminopyridine] as the compound, how does the “% inhibition of acute oedema” value (paw of rats) read?
Answer: Its value is 73.6%.

Question: What about the Diuresis (rats) of the same compound?
Answer: The Diuresis was 22.0 mL/kg.

Question: `CCCCNC(=O)NS(=O)(=O)c1cnccc1Nc1cccc(Cl)c1` [JDL 344, 3-butylcarbamylsulfonamido-4-(3'-chloro)-phenylaminopyridine] was tested. Which “% inhibition of acute oedema” value (paw of rats) did it give?
Answer: The value was 82.4%.

Question: What about the Diuresis (rats) of the same compound?
Answer: Its Diuresis is 66.9 mL/kg.

Question: With `CCNC(=S)NS(=O)(=O)c1cnccc1Nc1cccc(C(F)(F)F)c1` [JDL 420, 3-ethylthiocarbamylsulfonamido-4-(3'trifluoromethyl)-phenylaminopyridine] as the compound, how does the “% inhibition of acute oedema” value (paw of rats) read?
Answer: Its value is 52.8%.

Question: And the Diuresis (rats)?
Answer: Its Diuresis is 65.0 mL/kg.

Question: For `CCCCNC(=O)NS(=O)(=O)c1cnccc1Nc1ccc(Cl)cc1` [JDL 424, 3-butylcarbamylsulfonamido-4-(4'-chloro)-phenylaminopyridine], which “% inhibition of acute oedema” value (paw of rats) is on record?
Answer: The value was 50.4%.

Question: What about the Diuresis (rats) of the same compound?
Answer: The Diuresis was 21.0 mL/kg.

Question: Which results are given for `NS(=O)(=O)c1cnccc1Sc1cccc(Cl)c1` [JDL 361, 3-sulfonamido-4-(3'-chloro)-thiophenoxypyridine]?
Answer: % inhibition of acute oedema (paw of rats): 56.8%; Diuresis (rats): 9.6 mL/kg

Question: Which “% inhibition of acute oedema” value (paw of rats) does the source give for `CC(C)NC(=O)NS(=O)(=O)c1cnccc1NC(C)C` [JDL 482, 3-isopropylcarbamylsulfonamido-4-isopropylaminopyridine] here?
Answer: Its value is 0%.

Question: What about the Diuresis (rats) of the same compound?
Answer: The Diuresis was 25.3 mL/kg.

Question: What does the source list for `CC(C)(C)NC(=O)NS(=O)(=O)c1cnccc1Nc1ccccc1Cl` [JDL 427, 3-tertiobutylcarbamylsulfonamido-4-(2'-chloro)-phenylaminopyridine]?
Answer: % inhibition of acute oedema (paw of rats): 53.6%; Diuresis (rats): 11.4 mL/kg

Question: With `CC(C)NC(=O)NS(=O)(=O)c1cnccc1Nc1ccc(Cl)c(C(F)(F)F)c1` [JDL 487, 3-isopropylcarbamylsulfonamido-4-(3'-trifluoromethyl-4'-chloro)-phenylaminopyridine] as the compound, how does the “% inhibition of acute oedema” value (paw of rats) read?
Answer: Its value is 20.8%.

Question: What about the Diuresis (rats) of the same compound?
Answer: Its Diuresis is 10.5 mL/kg.

Question: With `CNC(=S)NS(=O)(=O)c1cnccc1Nc1cccc(Cl)c1` [JDL 477, 3-methylthiocarbamylsulfonamido-4-(3'-chloro)-phenylaminopyridine] as the compound, how does the “% inhibition of acute oedema” value (paw of rats) read?
Answer: The value was 61.6%.

Question: What about the Diuresis (rats) of the same compound?
Answer: Its Diuresis is 43.6 mL/kg.

Question: For `CCNC(=O)NS(=O)(=O)c1cnccc1Nc1cccc(Br)c1` [JDL 467, 3-ethylcarbamylsulfonamido-4-(3'-bromo)-phenylaminopyridine], which “% inhibition of acute oedema” value (paw of rats) is on record?
Answer: The value was 69.6%.

Question: And the Diuresis (rats)?
Answer: Its Diuresis is 65.8 mL/kg.

Question: Which “% inhibition of acute oedema” value (paw of rats) does the source give for `CCCCNC(=O)NS(=O)(=O)c1cnccc1Nc1ccccc1Cl` [JDL 422, 3-butylcarbamylsulfonamido-4(2'-chloro)-phenylaminopyridine] here?
Answer: Its value is 46.4%.

Question: And the Diuresis (rats)?
Answer: The Diuresis was 56.7 mL/kg.

Question: With `CCc1cccc(Nc2ccncc2S(=O)(=O)NC(=O)NC(C)C)c1` [JDL 512, 3-isopropylcarbamylsulfonamido-4-(3'-ethyl)-phenylaminopyridine] as the compound, how does the “% inhibition of acute oedema” value (paw of rats) read?
Answer: Its value is 78.7%.

Question: What about the Diuresis (rats) of the same compound?
Answer: Its Diuresis is 65.9 mL/kg.

Question: For `CC(=O)NS(=O)(=O)c1cnccc1Sc1cccc(Cl)c1` [JDL 362, 3-acetylsulfonamido-4-(3-chloro)-thiophenoxy-pyridine], which “% inhibition of acute oedema” value (paw of rats) is on record?
Answer: The value was 37.6%.

Question: What about the Diuresis (rats) of the same compound?
Answer: Its Diuresis is 8.1 mL/kg.

Question: `O=C(NC1CCCCC1)NS(=O)(=O)c1cnccc1Nc1cccc(Cl)c1` [JDL 389, 3-cyclohexylcarbamylsulfonamido-4-(3'-chloro)-phenylaminopyridine] was tested. Which “% inhibition of acute oedema” value (paw of rats) did it give?
Answer: Its value is 64.0%.

Question: What about the Diuresis (rats) of the same compound?
Answer: The Diuresis was 73.3 mL/kg.

Question: How did the “% inhibition of acute oedema” value (paw of rats) turn out when `CC(C)NC(=O)NS(=O)(=O)c1cnccc1Nc1cccc(C(F)(F)F)c1` [JDL 414, 3-isopropylcarbamylsulfonamido-4-(3'-trifluoromethyl)-phenylaminopyridine] was run?
Answer: Its value is 75.2%.

Question: What about the Diuresis (rats) of the same compound?
Answer: Its Diuresis is 82.9 mL/kg.

Question: What does the source list for `COc1cccc(Nc2ccncc2S(=O)(=O)NC(=O)NC(C)C)c1` [JDL 470, 3-isopropylcarbamylsulfonamido-4-(3'-methoxy)-phenylaminopyridine]?
Answer: % inhibition of acute oedema (paw of rats): 83.2%; Diuresis (rats): 74.9 mL/kg

Question: How did the “% inhibition of acute oedema” value (paw of rats) turn out when `CCCCNC(=O)NS(=O)(=O)c1cnccc1NC(C)C` [JDL 491, 3-butylcarbamylsulfonamido-4-isopropylaminopyridine] was run?
Answer: Its value is 88.0%.

Question: And the Diuresis (rats)?
Answer: The Diuresis was 25.1 mL/kg.

Question: How did the “% inhibition of acute oedema” value (paw of rats) turn out when `CCN(CC)c1ccncc1S(N)(=O)=O` [JDL 484, 3-sulfonamido-4-diethylaminopyridine] was run?
Answer: The value was 13.6%.

Question: What about the Diuresis (rats) of the same compound?
Answer: The Diuresis was 9.0 mL/kg.

Question: How did the “% inhibition of acute oedema” value (paw of rats) turn out when `CC(C)NC(=O)NS(=O)(=O)c1cnccc1Nc1cccc(F)c1` [JDL 466, 3-isopropylcarbamylsulfonamido-4-(3'-fluoro)-phenylaminopyridine] was run?
Answer: The value was 68.0%.

Question: And the Diuresis (rats)?
Answer: The Diuresis was 70.7 mL/kg.

Question: Which “% inhibition of acute oedema” value (paw of rats) does the source give for `CCNC(=O)NS(=O)(=O)c1cnccc1Nc1ccc(Cl)cc1` [JDL 416, 3-ethylcarbamylsulfonamido-4-(4'-chloro)-phenylaminopyridine] here?
Answer: The value was 85.6%.

Question: And the Diuresis (rats)?
Answer: The Diuresis was 52.8 mL/kg.

Question: `O=C(Nc1ccc(Cl)cc1)NS(=O)(=O)c1cnccc1Nc1cccc(Cl)c1` [JDL 391, 3-parachlorophenylcarbamylsulfonamido-4-(3'-chloro)-phenylaminopyridine] was tested. Which “% inhibition of acute oedema” value (paw of rats) did it give?
Answer: Its value is 74.4%.

Question: What about the Diuresis (rats) of the same compound?
Answer: The Diuresis was 9.6 mL/kg.

Question: With `CC(C)(C)NC(=O)NS(=O)(=O)c1cnccc1Nc1ccc(Cl)cc1` [JDL 425, 3-tertiobutylcarbamylsulfonamido-4-(4'-chloro)-phenylaminopyridine] as the compound, how does the “% inhibition of acute oedema” value (paw of rats) read?
Answer: Its value is 42.4%.

Question: What about the Diuresis (rats) of the same compound?
Answer: The Diuresis was 37.7 mL/kg.

Question: How did the “% inhibition of acute oedema” value (paw of rats) turn out when `CCNC(=O)NS(=O)(=O)c1cnccc1Nc1cccc(OC)c1` [JDL 469, 3-ethylcarbamylsulfonamido-4-(3'-methoxy)-phenylaminopyridine] was run?
Answer: Its value is 60.8%.

Question: And the Diuresis (rats)?
Answer: The Diuresis was 46.9 mL/kg.
